The values that follow come from BindingDB's records for PubMed 1656026 (University of Nebraska, 1991).

For assay [1], the target named is T1, Alpha-2A adrenergic receptor (Homo sapiens, UniProt P08913).
T1 sequence (P08913 whole entry): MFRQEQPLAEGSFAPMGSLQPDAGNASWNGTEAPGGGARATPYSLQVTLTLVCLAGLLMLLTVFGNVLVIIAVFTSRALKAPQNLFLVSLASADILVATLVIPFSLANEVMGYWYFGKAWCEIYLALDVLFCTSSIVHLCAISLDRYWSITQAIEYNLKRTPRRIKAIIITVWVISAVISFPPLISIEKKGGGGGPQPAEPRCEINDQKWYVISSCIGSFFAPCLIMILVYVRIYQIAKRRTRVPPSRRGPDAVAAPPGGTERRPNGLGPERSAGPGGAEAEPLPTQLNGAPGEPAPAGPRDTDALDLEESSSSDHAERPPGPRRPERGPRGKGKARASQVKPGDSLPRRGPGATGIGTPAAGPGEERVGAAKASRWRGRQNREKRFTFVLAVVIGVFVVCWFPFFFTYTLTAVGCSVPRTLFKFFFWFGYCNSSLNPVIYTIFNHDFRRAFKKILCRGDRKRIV

For assay [2], the target named is Alpha-2C adrenergic receptor.
In assay [3] the target is T2, Alpha-2B adrenergic receptor (Rattus norvegicus, UniProt P19328).
T2 sequence (P19328 whole entry): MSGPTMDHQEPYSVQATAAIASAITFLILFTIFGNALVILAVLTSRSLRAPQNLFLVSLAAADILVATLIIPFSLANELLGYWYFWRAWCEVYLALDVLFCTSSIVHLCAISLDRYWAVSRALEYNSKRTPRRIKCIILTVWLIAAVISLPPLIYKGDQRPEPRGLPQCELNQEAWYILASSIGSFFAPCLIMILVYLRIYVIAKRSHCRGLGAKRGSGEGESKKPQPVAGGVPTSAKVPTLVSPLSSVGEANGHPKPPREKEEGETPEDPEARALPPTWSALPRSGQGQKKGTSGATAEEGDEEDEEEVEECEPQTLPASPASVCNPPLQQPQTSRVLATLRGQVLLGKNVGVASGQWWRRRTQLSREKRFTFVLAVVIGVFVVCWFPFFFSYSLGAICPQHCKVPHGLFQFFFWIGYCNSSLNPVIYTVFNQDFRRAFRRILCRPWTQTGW

For assay [4], the target named is T3, Alpha-2C adrenergic receptor (Didelphis virginiana, UniProt P35405).
T3 sequence (P35405 whole entry): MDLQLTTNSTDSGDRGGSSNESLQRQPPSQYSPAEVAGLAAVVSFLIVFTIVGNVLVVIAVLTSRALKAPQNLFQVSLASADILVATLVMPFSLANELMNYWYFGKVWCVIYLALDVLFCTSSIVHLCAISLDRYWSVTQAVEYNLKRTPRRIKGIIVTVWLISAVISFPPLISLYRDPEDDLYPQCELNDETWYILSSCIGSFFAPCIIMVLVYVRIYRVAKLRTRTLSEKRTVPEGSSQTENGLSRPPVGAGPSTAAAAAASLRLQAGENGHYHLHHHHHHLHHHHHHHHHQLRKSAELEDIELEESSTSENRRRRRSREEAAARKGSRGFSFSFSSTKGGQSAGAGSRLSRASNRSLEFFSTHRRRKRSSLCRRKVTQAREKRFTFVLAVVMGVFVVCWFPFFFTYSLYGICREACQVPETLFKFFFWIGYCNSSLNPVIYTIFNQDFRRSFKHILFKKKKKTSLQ

pKi: −log10 of the molar value. Several values for one entry are separate records, joined by “and”; a condition that tells them apart may be missing. Equal values may be shown once. Where a name gives a salt, the structure may show the parent alone. Numbered stars: 1 amine (or outer) side, 2 acyl side, 3 side chain; on linkers, the order of the positions; unused ones are H or OH. Square brackets hold non-standard residues; d marks the D form. Peptide text beside a SMILES is read from it. * marks the point of attachment. Cyclohexylacetyl(1-SH) = O=C(CC1(S)CCCCC1)*; X1 = O=C(C(C=S)N[*:1])[*:2]

For `CCCN(CCC)C1CCc2cccc(O)c2C1` (stereo unspecified), the figures for the pKi in assay [1], in assay [2] and in assay [3] were 6.73, 6.93 and 6.83, respectively.
In the same order, the values of `CC(C)(C)[C@]1(O)CCN2C[C@H]3c4ccccc4CCc4cccc(c43)[C@@H]2C1` are 7.28, 7.38 and 7.92.
Turning to `c1ccc2c(c1)OCC(C1=NCCN1)O2` (stereo unspecified), the pKi is 8.62 in assay [4] and 9.25 in assay [2].
On to `CN1c2ccc(F)cc2CC1C1=NCCN1` (stereo unspecified), for which the results for the pKi in assay [1], in assay [2] and in assay [3] were 9.40, 9.32 and 9.00, respectively.
In the case of `Clc1ccc2nsnc2c1NC1=NCCN1`, the pKi in assay [2] and in assay [3] was 7.12 throughout.
For `OCCN1CCN(CCCN2c3ccccc3Sc3ccc(C(F)(F)F)cc32)CC1` [2-[4-[3-[2-(trifluoromethyl)phenothiazin-10-yl]propyl]piperazin-1-yl]ethanol;hydrochloride], the pKi was 6.52 in assay [1], 6.91 in assay [2] and 6.49 in assay [3].
As for `O=C(c1ccc(F)cc1)C1CCN(CCn2c(=O)[nH]c3ccccc3c2=O)CC1` [3-(2-{4-[(4-fluorophenyl)carbonyl]piperidin-1-yl}ethyl)-1,2,3,4-tetrahydroquinazoline-2,4-dione], the negative logarithm of the Ki (pKi) in assay [2] was 6.80; in assay [3], 6.65.
As for `CN1CCN(C2=c3ccccc3=Nc3ccc(Cl)cc3N2)CC1` [6-chloro-10-(4-methylpiperazin-1-yl)-2,9-diazatricyclo[9.4.0.0^{3,8}]pentadeca-1,3(8),4,6,10,12,14-heptaene], the pKi in assay [2] is 8.38.
Regarding `O=C1NCN(c2ccccc2)C12CCN(CC1COc3ccccc3O1)CC2` (stereo unspecified) [8-(2,3-Dihydro-benzo[1,4]dioxin-2-ylmethyl)-1-phenyl-1,3,8-triaza-spiro[4.5]decan-4-one], the pKi in assay [4] was 9.17; in assay [1], 7.89; in assay [2], 9.23; in assay [3] it was 9.47.
For the molecule `CSc1ccc2c(c1)N(CC[C@@H]1CCCCN1C)c1ccccc1S2` [10-[2-(1-Methyl-piperidin-2-yl)-ethyl]-2-methylsulfanyl-10H-phenothiazine (thioridazine)], the pKi in assay [2] is 6.26.
In the case of `COC(=O)C1=CO[C@@H](C)[C@@H]2CN3CCc4c([nH]c5ccccc45)[C@H]3C[C@H]12` [AKUAMMIGINE], the pKi was 6.89 in assay [1], 7.92 in assay [2] and 6.68 in assay [3].
Consider `COC(=O)C1=COC(C)C2CN3CCc4c([nH]c5ccccc45)C3CC12` (stereo unspecified) [Ajmalicine], for which, in assay [2], the pKi was 8.96 and 9.52.
For `CN1C[C@H](Cn2ccnc2-c2ccccc2)C[C@@H]2c3cccc4[nH]c(Br)c(c34)C[C@H]21` [BAM-1303], the pKi is 8.60 in assay [1], 9.42 in assay [2] and 7.59 in assay [3].
In the same order, the values of `O=C1c2ccccc2CCC1CNCCc1ccc(O)cc1` (stereo unspecified) [CAS_34772] are 9.03, 9.30 and 9.17.
Taken in the same sequence, the figures for `Clc1cccc2c1CN(NC1=NCCN1)C2` [CAS_76727-72-5] were 10.22, 10.10 and 9.85.
In the same order, the values of `Cc1nc2n(c(=O)c1CCN1CCC(C(=O)c3ccc(F)cc3)CC1)CCS2` [CAS_86487-64-1] are 7.05, 7.29 and 7.60.
For the molecule `CS(=O)(=O)NCCN(C1CCN2CCc3ccccc3C2C1)S(C)(=O)=O` (stereo unspecified) [CAS_125697], the negative logarithm of the Ki (pKi) in assay [1] is 7.96; in assay [2], 9.25; in assay [3] it was 8.28.
Taken in the same sequence, the figures for `Cc1cccc(C)c1CCc1cnc[nH]1` [CAS_133305] were 8.06, 7.85 and 7.74.
Regarding `CCCS(=O)(=O)N(C)C1CCN2CCc3ccccc3C2C1` (stereo unspecified) [CAS_133816], the values for the negative logarithm of the Ki (pKi) in assay [1], in assay [2] and in assay [3] were 8.66, 9.07 and 8.72, respectively.
In the same order, the values of `CCOc1ccc(CC(NC(=O)CC2(S)CCCCC2)C(=O)NC(Cc2ccccc2)C(=O)NC(C(=O)NC(CC(N)=O)C(=O)NC(C=S)C(=O)NC(CCCCN)C(N)=O)C(C)C)cc1` (stereo unspecified) [CAS_196343] ({Cyclohexylacetyl(1-SH)}-Y(Et)FVN[X1]K-NH2; configuration not given here) are 9.44, 9.85 and 9.32.
Taken in the same sequence, the figures for `CN1CCN(C2=Nc3ccccc3Sc3nccn32)CC1` [CGS-10746B] were 5.44, 6.09 and 6.24.
In the same order, the values of `Clc1cncc(N2CCNCC2)n1` [L-630,571] are 6.82, 6.90 and 6.90.
Take `c1cn2ccnc2c(N2CCNCC2)n1` [L-639,019]: the results for the pKi in assay [1], in assay [2] and in assay [3] were 7.46, 7.06 and 7.47, respectively.
Taken in the same sequence, the figures for `Fc1cccnc1N1CCNCC1` [L-644,763] were 7.70, 7.70 and 7.64.
Regarding `CN1CCC2(CCN3CCc4c(oc5ccccc45)C3C2)N(C)C1=O` (stereo unspecified) [MK-912], the pKi was 9.38 in assay [1], 10.52 in assay [2] and 9.59 in assay [3].
Take `Oc1ccc(C2CNCCc3c2cc(O)c(O)c3Cl)cc1` (stereo unspecified) [MLS001401388]: the pKi in assay [2] is 7.66; in assay [3] it was 7.04.
`CN1CCc2cccc(Cl)c2CC1` [MLS002172470]: the pKi in assay [1] was 8.62; in assay [2], 8.57; in assay [3], 8.74.
Taken in the same sequence, the figures for `CCCCS(=O)(=O)N(C)[C@H]1CCN2CCc3ccccc3[C@H]2C1` [N-[(2S,11bR)-2,3,4,6,7,11b-hexahydro-1H-benzo[a]quinolizin-2-yl]-N-methylbutane-1-sulfonamide hydrochloride] were 8.85, 9.34 and 8.77.
Consider `C=CCN1Cc2ccccc2-c2ccccc2C1` [NSC_8966], for which the pKi in assay [1] was 7.42; in assay [2], 7.85; in assay [3], 8.28.
For the molecule `CN(C)CCCN1c2ccc(O)cc2Sc2ccc(Cl)cc21` [NSC_16414], the pKi was 6.49 in assay [2] and 7.23 in assay [3].
For the molecule `CCC1(c2cnc[nH]2)Cc2ccccc2C1` [NSC_71310], the pKi in assay [4] was 8.56; in assay [1], 9.48; in assay [2], 9.34.
Regarding `COc1ccccc1N1CCN(CCC2C(=O)c3ccccc3C(C)(C)C2=O)CC1` (stereo unspecified) [NSC_122211], the pKi is 7.32 in assay [4], 6.77 in assay [1], 7.89 in assay [2] and 8.80 in assay [3].
`CCOC1(C2=NCCN2)COc2ccccc2O1` (stereo unspecified) [NSC_125992]: the values for the pKi in assay [1], in assay [2] and in assay [3] were 9.70, 9.62 and 9.24, respectively.
`COc1cccc(OC)c1OCCNCC1Oc2ccccc2OC1c1ccccc1` (stereo unspecified) [NSC_185453]: the pKi is 8.80 in assay [4], 8.92 in assay [1], 9.57 in assay [2] and 8.06 in assay [3].
Take `c1ccc2c(c1)OCC(CN1CCCCC1)O2` (stereo unspecified) [Piperoxan]: the values for the negative logarithm of the Ki (pKi) in assay [1], in assay [2] and in assay [3] were 8.27, 8.89 and 8.70, respectively.
For `CC(C)=CCOc1ccc(Cl)c2c1CCN(C)CC2` [SK&F-104078], the pKi is 7.49 in assay [1], 7.37 in assay [2] and 7.31 in assay [3].
In assay [4], `Cc1cc(C(C)(C)C)c(O)c(C)c1CC1=NCCN1` [SMR000059324] showed a pKi of 7.14.
For the molecule `c1ccc(CC2=NCCN2)cc1` [Tolazoline], the pKi is 6.65 in assay [2] and 6.95 in assay [3].
Consider `CN(C)CCCN1c2ccccc2Sc2ccc(Cl)cc21` [[3-(2-Chloro-phenothiazin-10-yl)-propyl]-dimethyl-amine(Chlorpromazine)], for which, in assay [4], the pKi was 6.94.
For `COc1cc2nc(N3CCN(C(=O)c4ccco4)CC3)nc(N)c2cc1OC` [[3H]-Minipress], the pKi in assay [4] was 7.44; in assay [2], 7.82.
